Test system: rat oligodendrocyte progenitor cells
Assay: Promotive activity of rat oligodendrocyte progenitor cell differentiation-1 (MBP gene expression, mRNA)
Type: cell-based
Conditions: Rattus norvegicus, Oligodendrocyte progenitor cell, 96 h, read-out: promotive activity at T3 base (MBP gene expression; DMSO 0%, T3 100%), 4 days, MBP/β actin mRNA
How it was run: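 Primary OPCs from 1-day-old SD rat forebrain, isolated by shaking off mixed glial cultures and seeded at 2×10^3 cells/well in B27/CNTF (10 ng/mL) differentiation medium with compound. MBP mRNA measured by one-step TaqMan real-time PCR and expressed as MBP/β-actin ratio.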

C[C@H](CCN1CCOCC1)[C@H]1CC[C@H]2/C(=C/C=C3C[C@@H](O)C[C@H](O)C3)CCC[C@]12C [Compound D023, (1R,3R)-5-(2-((1R,3aS,7aR,E)-7a-methyl-1-((R)-4-morpholinobutan-2-yl)octahydro-4H-inden-4-ylidene)ethylidene)cyclohexane-1,3-diol]
activation at 1 µM: ≥ 20%
